Laboratory results reported in article doi:10.1101/2023.09.07.556657v1 (biorxiv, 2023).

Target: T1, Cf-SGBP-CBMxxIV (Christiangramia forsetii, UniProt A0M709)
T1 sequence (A0M709 740-904): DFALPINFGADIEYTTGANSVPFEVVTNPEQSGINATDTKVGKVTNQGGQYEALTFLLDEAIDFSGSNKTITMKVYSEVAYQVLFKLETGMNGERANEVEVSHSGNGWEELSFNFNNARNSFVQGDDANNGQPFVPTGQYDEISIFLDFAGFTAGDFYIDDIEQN
Assay: isothermal titration calorimetry
Format: binding
Settings: 293.15 K, pH 7.8, 10 mM MOPS, 100 mM NaCl; single-site model

Ka	SMILES
1.39 (± 0.07) x10^4	OC[C@H]1O[C@@H](O[C@@H]2[C@@H](O)[C@H](O[C@@H]3[C@@H](O)[C@H](O[C@@H]4[C@@H](O)[C@H](O[C@H]5[C@H](O)[C@@H](CO)OC(O)[C@@H]5O)O[C@H](CO)[C@H]4O)O[C@H](CO)[C@H]3O)O[C@H](CO)[C@H]2O)[C@H](O)[C@@H](O)[C@@H]1O (some centres unmarked) [DP5, laminaripentaose]
1.87 (± 0.17) x10^4	OC[C@H]1O[C@@H](O[C@@H]2[C@@H](O)[C@H](O[C@@H]3[C@@H](O)[C@H](O[C@@H]4[C@@H](O)[C@H](O[C@@H]5[C@@H](O)[C@H](O[C@@H]6[C@@H](O)[C@H](O[C@H]7[C@H](O)[C@@H](CO)OC(O)[C@@H]7O)O[C@H](CO)[C@H]6O)O[C@H](CO)[C@H]5O)O[C@H](CO)[C@H]4O)O[C@H](CO)[C@H]3O)O[C@H](CO)[C@H]2O)[C@H](O)[C@@H](O)[C@@H]1O (some centres unmarked) [DP7, laminariheptaose]
